Data taken from patent US6803374B2, “Compounds useful for treating hepatitis C virus” (priority 2001, dated 2004).

target: T1, HCV NS5B RdRp genotype 1b (Hepatitis C virus genotype 1b, UniProt Q9WMX2); assay: HCV NS5B RdRp enzyme assay; format: biochemical; conditions: IC50, HCV RdRp genotype 1b enzyme, C-terminal 18 aa truncated; average of single point IC50 values
T1 construct: The protein was expressed with an 18 amino acid C-terminal truncation to enhance the solubility; made in house; host or cells: E. coli BL21(DE3)
Procedure: HCV NS5B RdRp cloning, expression and purification. The cDNA encoding the NS5B protein of HCV, genotype 1b, was cloned into the pET21a expression vector. The protein was expressed with an 18 amino acid C-terminal truncation to enhance the solubility. The E. coli competent cell line BL21(DE3) was used for expression of the protein. Cultures were grown at 37° C. for ˜4 hours until the cultures reached an optical density of 2.0 at 600 nm. The cultures were cooled to 20° C. and induced with 1 mM IPTG. Fresh ampicillin was added to a final concentration of 50 ug/ml and the cells were grown overnight at 20° C.
Cell pellets (3L) were lysed for purification to yield 15-24 mgs of purified NS5B. The lysis buffer consisted of 20 mM Tris-HCl, pH 7.4, 500 mM NaCl, 0.5% triton X-100, 1 mM DTT, 1 mM EDTA, 20% glycerol, 0.5 mg/ml lysozyme, 10 mM MgCl2, 15 ug/ml deoxyribonuclease I, and Complete TM protease inhibitor tablets (Roche). After addition of the lysis buffer, frozen cell pellets were resuspended using a tissue homogenizer. To reduce the viscosity of the sample, aliquots of the lysate were sonicated on ice using a microtip attached to a Branson sonicator. The sonicated lysate was centrifuged at 100,000×g for 1 hr at 4° C. and filtered through a 0.2 μm filter unit (Corning).
The protein was purified using three sequential chromatography steps: Heparin sepharose CL-6B, polyU sepharose 4B, and Hitrap SP sepharose (Pharmacia). The chromatography buffers were identical to the lysis buffer but contained no lysozyme, deoxyribonuclease I, MgCl2 or protease inhibitor and the NaCl concentration of the buffer was adjusted according to the requirements for charging the protein onto the column. Each column was eluted with a NaCl gradient which varied in length from 5-50 column volumes depending on the column type. After the final chromatography step, the resulting purity of the enzyme is >90% based on SDS-PAGE analysis. The enzyme was aliquoted and stored at −80° C.
HCV NS5B RdRp enzyme assay. HCV RdRp genotype 1b assays were run in assay buffer composed of 20 mM Tris-HCl, pH 7.5, 2.5 mM KCl, 5 mM MgCl2, 1 mM DTT, 1.6 U RNAse inhibitor (Promega N2515), in 96 well plates (Falcon 3918). All compounds were serially diluted in DMSO and diluted further in assay buffer such that the final concentration of DMSO in the assay was 2%. Compounds were serially diluted (3-fold each time) for a 7 point inhibition analysis. HCV RdRp genotype 1b enzyme was used at a final concentration of 28 nM. A polyA template was used at 28 nM, and the oligo-dT12-18 primer was used at 840 nM final concentration. Preannealed primer and template were obtained commercially (Amersham 27-787802). ^3H-UTP was used at 0.125 μCi (1 μM total UTP). Reaction was initiated by the addition of enzyme. Reactions were incubated at 30° C. for 45 min, and stopped by adding 30 ul of 20% ice cold TCA. Plates were chilled for 30 minutes and harvested onto Unifilter-96, GF/B plates (Packard, 6005177) using a Packard FilterMate Cell Harvester. The harvest plates were prewashed 3 times, 200 ul/well, with 100 mM NaPPi. Harvested filters were washed 30 times, 200 ul/well, with distilled water followed by ethanol. Filter plates were dried, and 30 ul/well microscint-20 was added. Plates were read on a Packard Top Count NXT.
The IC50 values for compounds were determined using […] different [I], combined with 7 nM enzyme, 800 ng of the template-primer polyC/oligoG12 (1:5 molar ratio), and 0.7 uM of ^3H GTP containing 1 uCi. The observed fractional activity (fa=vi/vo) was used in the equation IC50=[I]/(1/fa-1) to determine a single point IC50 value. Typically, the single point IC50 values derived from [I] that produced fractional activities in the range of 0.1 to 0.8 relative to the uninhibited control were averaged to calculate the IC50 value for each compound.

T1 sequence (Q9WMX2 2420-2992): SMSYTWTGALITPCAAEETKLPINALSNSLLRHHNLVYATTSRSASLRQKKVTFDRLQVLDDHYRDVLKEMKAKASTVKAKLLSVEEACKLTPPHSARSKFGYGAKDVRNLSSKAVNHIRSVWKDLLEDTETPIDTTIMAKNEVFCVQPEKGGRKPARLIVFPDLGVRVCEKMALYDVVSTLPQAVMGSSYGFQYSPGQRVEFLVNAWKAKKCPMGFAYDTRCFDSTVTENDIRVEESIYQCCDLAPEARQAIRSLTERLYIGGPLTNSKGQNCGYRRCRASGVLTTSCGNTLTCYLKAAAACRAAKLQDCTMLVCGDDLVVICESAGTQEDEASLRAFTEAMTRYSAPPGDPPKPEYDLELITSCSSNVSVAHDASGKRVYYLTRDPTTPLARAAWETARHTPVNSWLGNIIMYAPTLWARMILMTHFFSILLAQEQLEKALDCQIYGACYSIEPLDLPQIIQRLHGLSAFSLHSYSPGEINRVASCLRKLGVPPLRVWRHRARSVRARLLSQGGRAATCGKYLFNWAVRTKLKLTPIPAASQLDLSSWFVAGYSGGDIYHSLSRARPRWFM

Compound | IC50 [µM]
NC(=O)CCNC(=O)c1ccc(-c2cccc(O)c2)c(COc2ccc(-c3nc4cc(-c5nnn[nH]5)ccc4n3C3CCCCC3)cc2)c1 [Example 55] | 0.2
CC(NC(=O)c1ccc(-c2ccc(F)c(Cl)c2)c(COc2ccc(-c3nc4cc(-c5nnn[nH]5)ccc4n3C3CCCCC3)cc2)c1)C(=O)O (stereo not drawn) [Example 56] | 0.19
O=C(NC(Cc1ccc(O)cc1)C(=O)O)c1ccc(-c2ccc(F)c(Cl)c2)c(COc2ccc(-c3nc4cc(-c5nnn[nH]5)ccc4n3C3CCCCC3)cc2)c1 (stereo not drawn) [Example 57] | 0.18
NC(=O)CCNC(=O)c1ccc(-c2ccc(F)c(Cl)c2)c(COc2ccc(-c3nc4cc(-c5nnn[nH]5)ccc4n3C3CCCCC3)cc2)c1 [Example 59] | 0.92
COc1ccc(-c2ccc(C(=O)NC(Cc3ccc(O)cc3)C(=O)O)cc2COc2ccc(-c3nc4cc(-c5nnn[nH]5)ccc4n3C3CCCCC3)cc2)cc1OC (stereo not drawn) [Example 61] | 0.09
COc1ccc(-c2ccc(C(=O)NCCC(N)=O)cc2COc2ccc(-c3nc4cc(-c5nnn[nH]5)ccc4n3C3CCCCC3)cc2)cc1OC [Example 63] | 0.15
CN1CCN(C(=O)c2ccc(-c3cccc(O)c3)c(COc3ccc(-c4nc5cc(-c6nnn[nH]6)ccc5n4C4CCCCC4)cc3)c2)CC1 [Example 64] | 1.2
O=C(c1ccc(-c2cccc(O)c2)c(COc2ccc(-c3nc4cc(-c5nnn[nH]5)ccc4n3C3CCCCC3)cc2)c1)N1CCOCC1 [Example 65] | 1.7
O=C(c1ccc(-c2cccc(O)c2)c(COc2ccc(-c3nc4cc(-c5nnn[nH]5)ccc4n3C3CCCCC3)cc2)c1)N1CCCC1 [Example 66] | 1.4
O=C(NCCCO)c1ccc(-c2cccc(O)c2)c(COc2ccc(-c3nc4cc(-c5nnn[nH]5)ccc4n3C3CCCCC3)cc2)c1 [Example 67] | 0.79
CNC(=O)c1ccc(-c2cccc(O)c2)c(COc2ccc(-c3nc4cc(-c5nnn[nH]5)ccc4n3C3CCCCC3)cc2)c1 [Example 68] | 0.54
O=C(c1ccc(-c2cccc(O)c2)c(COc2ccc(-c3nc4cc(-c5nnn[nH]5)ccc4n3C3CCCCC3)cc2)c1)N1CCC(O)CC1 [Example 69] | 0.66
O=C(c1ccc(-c2cccc(O)c2)c(COc2ccc(-c3nc4cc(-c5nnn[nH]5)ccc4n3C3CCCCC3)cc2)c1)N(CCO)CCO [Example 70] | 0.5
CC(NC(=O)c1ccc(-c2cccc(O)c2)c(COc2ccc(-c3nc4cc(-c5nnn[nH]5)ccc4n3C3CCCCC3)cc2)c1)C(=O)OC(C)(C)C (stereo not drawn) [Example 71] | 0.52
CC(C)(C)OC(=O)CNC(=O)c1ccc(-c2cccc(O)c2)c(COc2ccc(-c3nc4cc(-c5nnn[nH]5)ccc4n3C3CCCCC3)cc2)c1 [Example 72] | 0.93
O=C(O)CNC(=O)c1ccc(-c2cccc(O)c2)c(COc2ccc(-c3nc4cc(-c5nnn[nH]5)ccc4n3C3CCCCC3)cc2)c1 [Example 74] | 0.15
O=C(c1ccc(-c2ccc(F)c(Cl)c2)c(COc2ccc(-c3nc4cc(-c5nnn[nH]5)ccc4n3C3CCCCC3)cc2)c1)N1CCOCC1 [Example 76] | 1.4
O=C(c1ccc(-c2ccc(F)c(Cl)c2)c(COc2ccc(-c3nc4cc(-c5nnn[nH]5)ccc4n3C3CCCCC3)cc2)c1)N1CCCC1 [Example 77] | 1.2
O=C(NCCCO)c1ccc(-c2ccc(F)c(Cl)c2)c(COc2ccc(-c3nc4cc(-c5nnn[nH]5)ccc4n3C3CCCCC3)cc2)c1 [Example 78] | 0.69
CNC(=O)c1ccc(-c2ccc(F)c(Cl)c2)c(COc2ccc(-c3nc4cc(-c5nnn[nH]5)ccc4n3C3CCCCC3)cc2)c1 [Example 79] | 0.55
O=C(c1ccc(-c2ccc(F)c(Cl)c2)c(COc2ccc(-c3nc4cc(-c5nnn[nH]5)ccc4n3C3CCCCC3)cc2)c1)N(CCO)CCO [Example 81] | 1.1

Compound | IC50 [µM]
CC(NC(=O)c1ccc(-c2ccc(F)c(Cl)c2)c(COc2ccc(-c3nc4cc(-c5nnn[nH]5)ccc4n3C3CCCCC3)cc2)c1)C(=O)OC(C)(C)C (stereo not drawn) [Example 82] | 1.3
CC(C)(C)OC(=O)C(Cc1ccc(O)cc1)NC(=O)c1ccc(-c2ccc(F)c(Cl)c2)c(COc2ccc(-c3nc4cc(-c5nnn[nH]5)ccc4n3C3CCCCC3)cc2)c1 (stereo not drawn) [Example 83] | 0.56
CC(C)(C)OC(=O)CNC(=O)c1ccc(-c2ccc(F)c(Cl)c2)c(COc2ccc(-c3nc4cc(-c5nnn[nH]5)ccc4n3C3CCCCC3)cc2)c1 [Example 84] | 1.2
CC(C)(C)OC(=O)C(Cc1cc2ccccc2[nH]1)NC(=O)c1ccc(-c2ccc(F)c(Cl)c2)c(COc2ccc(-c3nc4cc(-c5nnn[nH]5)ccc4n3C3CCCCC3)cc2)c1 (stereo not drawn) [Example 85] | 2.3
O=C(O)CNC(=O)c1ccc(-c2ccc(F)c(Cl)c2)c(COc2ccc(-c3nc4cc(-c5nnn[nH]5)ccc4n3C3CCCCC3)cc2)c1 [Example 86] | 0.32
COc1ccc(-c2ccc(C(=O)N3CCOCC3)cc2COc2ccc(-c3nc4cc(-c5nnn[nH]5)ccc4n3C3CCCCC3)cc2)cc1OC [Example 88] | 0.47
COc1ccc(-c2ccc(C(=O)N3CCCC3)cc2COc2ccc(-c3nc4cc(-c5nnn[nH]5)ccc4n3C3CCCCC3)cc2)cc1OC [Example 89] | 0.46
COc1ccc(-c2ccc(C(=O)NCCCO)cc2COc2ccc(-c3nc4cc(-c5nnn[nH]5)ccc4n3C3CCCCC3)cc2)cc1OC [Example 90] | 0.63
CNC(=O)c1ccc(-c2ccc(OC)c(OC)c2)c(COc2ccc(-c3nc4cc(-c5nnn[nH]5)ccc4n3C3CCCCC3)cc2)c1 [Example 91] | 0.26
COc1ccc(-c2ccc(C(=O)N(CCO)CCO)cc2COc2ccc(-c3nc4cc(-c5nnn[nH]5)ccc4n3C3CCCCC3)cc2)cc1OC [Example 93] | 0.69
COc1ccc(-c2ccc(C(=O)NC(C)C(=O)OC(C)(C)C)cc2COc2ccc(-c3nc4cc(-c5nnn[nH]5)ccc4n3C3CCCCC3)cc2)cc1OC (stereo not drawn) [Example 94] | 2.1
COc1ccc(-c2ccc(C(=O)NC(Cc3ccc(O)cc3)C(=O)OC(C)(C)C)cc2COc2ccc(-c3nc4cc(-c5nnn[nH]5)ccc4n3C3CCCCC3)cc2)cc1OC (stereo not drawn) [Example 95] | 1.4
COc1ccc(-c2ccc(C(=O)NCC(=O)OC(C)(C)C)cc2COc2ccc(-c3nc4cc(-c5nnn[nH]5)ccc4n3C3CCCCC3)cc2)cc1OC [Example 96] | 1.6
COc1ccc(-c2ccc(C(=O)NCC(=O)O)cc2COc2ccc(-c3nc4cc(-c5nnn[nH]5)ccc4n3C3CCCCC3)cc2)cc1OC [Example 98] | 0.21
CNC(=O)c1ccc(-c2ccc(Cl)cc2)c(COc2ccc(-c3nc4cc(-c5nnn[nH]5)ccc4n3C3CCCCC3)cc2)c1 [Example 106] | 0.66
O=C(O)c1ccc(-c2cccs2)c(COc2ccc(-c3nc4cc(-c5nnn[nH]5)ccc4n3C3CCCCC3)cc2)c1 [Example 114] | 0.07
O=C(O)c1ccc(-c2ccsc2)c(COc2ccc(-c3nc4cc(-c5nnn[nH]5)ccc4n3C3CCCCC3)cc2)c1 [Example 115] | 0.04
O=C(O)c1ccc(-c2cc3ccccc3o2)c(COc2ccc(-c3nc4cc(-c5nnn[nH]5)ccc4n3C3CCCCC3)cc2)c1 [Example 116] | 0.17
O=C(O)c1ccc(-c2ccco2)c(COc2ccc(-c3nc4cc(-c5nnn[nH]5)ccc4n3C3CCCCC3)cc2)c1 [Example 117] | 0.29
O=C(O)c1ccc(-c2ccc3c(c2)OCO3)c(COc2ccc(-c3nc4cc(-c5nnn[nH]5)ccc4n3C3CCCCC3)cc2)c1 [Example 118] | 0.07
O=C(O)c1ccc(-c2cc3ccccc3s2)c(COc2ccc(-c3nc4cc(-c5nnn[nH]5)ccc4n3C3CCCCC3)cc2)c1 [Example 119] | 0.03
